According to patent publication US7365080B2, “Pharmaceutical compositions comprising thieno[2,3-c]pyridine derivatives and use thereof” (Rimonyx Pharmaceuticals Ltd., priority 2003, dated 2008):

How the values were obtained:
L-Selectin = target: T1, L-Selectin (Homo sapiens, UniProt P14151); assay: ELISA: inhibition of L-selectin/IgG binding to immobilized heparin (Heparin-BSA); conditions: L-Selectin binding to heparin; 50 μM
T1 construct: purchased Research and Development Systems 728-LS
T1 sequence (P14151 39-332 limits assumed): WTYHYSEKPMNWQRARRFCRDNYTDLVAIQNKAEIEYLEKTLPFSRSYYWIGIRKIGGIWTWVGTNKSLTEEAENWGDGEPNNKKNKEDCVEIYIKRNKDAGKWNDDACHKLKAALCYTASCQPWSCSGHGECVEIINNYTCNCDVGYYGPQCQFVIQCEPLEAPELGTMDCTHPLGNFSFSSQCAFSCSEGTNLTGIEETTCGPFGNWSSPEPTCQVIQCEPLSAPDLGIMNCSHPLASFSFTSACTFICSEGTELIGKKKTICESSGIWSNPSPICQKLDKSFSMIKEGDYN
Experimental: The inhibitory effect of the compounds of the present invention can be evaluated by several methods in vitro. One assay for measuring GAG-ECAM binding, exemplified herein below, detects the binding of L selectin/IgG to immobilized heparin. Another assay utilizes immobilized L-selectin, or L-selectin fused to protein domains other than IgG. The amount of bound L-selectin is determined by an ELISA assay using, for example, a monoclonal antibody raised against L-selectin, which is conjugated to horseradish peroxidase. […] The Dregg-55 antibody was also shown to inhibit L-selectin-dependent adhesion in vitro, neutrophil accumulation in vitro and inflammation in vivo (Co M. S. et al, Immunotechnology 493: 253-266, 1999).
An in vitro assay was used to assess the ability of test compounds according to formula I to inhibit the interactions of L-selectin with HS-GAGs. The assay was suitable for determining the concentration required for 50% inhibition (IC-50) for each specific compound. In the assay, the GAG used was heparin. Thus, porcine intestinal mucosa heparin conjugated to Bovine Serum Albumin (Heparin-BSA; Sigma Cat. No. H0403) at […] in Phosphate Buffered Saline (PBS; pH 6.5) was added to a 96 well polystyrene ELISA plate (NUNC Cat. No. 442404; 0.1 ml per well) and incubated Over Night (ON) at 4° C. Following the incubation, the plate was washed thoroughly, by immersion, with de-ionized water and PBS (pH 6.5). The ELISA plate was then blocked with BSA (ICN Cat. No.160069, 3%, 200 μl per well) for 1 hour at Room Temperature (RT). Following blocking, the plate was washed with de-ionized water, and then with PBS (pH 6.5) containing Tween 20 (Sigma Cat. No. P-1379, 0.05%). Compounds were synthesized or purchased from ChemDiv Labs (San Diego, Calif.), dissolved in DMSO, diluted in PBS and added to the wells at various concentrations in the range of 0.01 to 300 μM. Recombinant Human L-Selectin/IgG (Research and Development Systems Cat. No.728-LS) dissolved in PBS supplemented with BSA (0.1%) and calcium chloride (1 mM) was added to the ELISA plate (100 μl per well) and incubated for 60 minutes at RT with shaking. Following incubation, the plate was washed with de-ionized water and three times with PBS (pH 6.5) containing Tween 20. Anti-Human IgG Peroxidase Conjugate (1:5000; Sigma Product No. A8667) diluted in PBS supplemented with BSA (0.1%) and calcium chloride (1 mM) was added to the ELISA plate (100 μl per well) and incubated for 30 minutes at RT with shaking. The plate was then washed with de-ionized water and three times with PBS (pH 6.5) containing Tween 20. The peroxidase substrate cromogen, TMB (Dako Cat. No. S1599) was added (100 μl per well) to the ELISA plate and incubated at room temperature. After 15 minutes ELISA Stop Solution (hydrochloric acid 1N, sulfuric acid 3N) was added (200 μl per well) to stop the peroxidase catalyzed colorimetric reaction. The Optical Density (OD) of the samples was measured at 450 nm using an ELISA plate reader (Dynatech MR5000). Data were analyzed with Graphpad Prism software and IC-50 values were established. The P-selectin assay was carried out in a similar fashion, except that Recombinant Human P-Selectin/IgG (Research and Development Systems Cat.No.137-PS) was used.

[1] = test system: immobilized heparin / L-selectin/IgG; assay: Assay 1: direct interaction with heparin, pre-incubation versus co-incubation with L-selectin; type: binding; conditions: compound 0.1-200 μM, 90 min, washed before L-selectin/IgG
Experimental: Inhibitor Compounds at final concentration 0.1-200 μM were incubated in the ELISA plate for 90 min, and then washed with incubation buffer. After washing, L-selectin/IgG was added to the wells pre-incubated with compounds. At the same time, in separate control wells, L-selectin was co-incubated with inhibitor Compounds for 90 min. Following the incubation, L-selectin bound to the plate was quantified by antibody conjugated to Horse Radish Peroxidase and OD measurement as performed as described in Example 5.

BALB/c mice [2] = assay: Thioglycollate-induced leukocyte and neutrophil infiltration into mouse peritoneum; type: in vivo
Experimental: The ability of compounds of the present invention to reduce leukocyte migration to sites of acute inflammation was evaluated in BALB/c mice using a thioglycolate-induced model of peritonitis. In this animal model, interactions of L- and P-selectin with HS-GAGs have been implicated in neutrophil infiltration (Nelson, R. M., 82:3253-3258, 1993; Xie, X. et al., J. Biol. Chem., 275:34818-34825, 2000).
BALB/c mice (6 weeks old, ˜20 g in weight, 15 mice/group) received intraperitoneal injection of an inhibitor compound in 0.2 ml DMSO/Tween/sterile saline 1 hour before administration of thioglycollate (Sigma). Control groups received vehicle and sham controls received no thioglycollate. Mice were injected intraperitoneally with 1 ml of 3% thioglycollate broth (Xie, X. et al., J. Biol. Chem., 275, 34818-34825, 2000). Mice were sacrificed after 3 hours, and the peritoneal cavities were ravaged with […] of ice-cold saline containing 2 mM EDTA to prevent clotting. After red blood cell lysis, leukocytes were counted in a hemocytometer. Neutrophils were counted after staining with Türck. Data was expressed as mean±SEM, and statistical analysis was performed by Student t test. A value of P<0.05 was taken to denote statistical significance.

BALB/c mice [3] = assay: Carrageenan-induced paw edema; type: in vivo, mouse; conditions: i.p. administration 60 min before carrageenan
Experimental: Acute edema was induced in the left hind paw of Balb/c mice by injecting 0.02 ml of freshly prepared solution of 2% carrageenan after 60 min of test compound administration (Torres, S. R. et al., European Journal of Pharmacology 408: 199-211, 2000). The right paw received 0.02 ml of saline, which served as a control. Carrageenan was injected under the plantar region of right hind paw and the paw thickness was measured at 2, 4 and 24 hours after carrageenan challenge using a Mitutoyo engineer's micrometer expressed as the difference between right and left pad as mean±SEM. […] A dose response curve for Compound no.

Mice = assay: Delayed-type hypersensitivity (oxazolone, ear-swelling test); type: in vivo, mouse; conditions: 3 mg/kg iv, 24 hours after challenge
Experimental: Mice (15 animals per group) were sensitized by topical application of a 2% oxazolone (4-ethoxymethylene-2-phenyl-2-oxazoline-5-one; Sigma, St Louis, Mo.) solution in acetone/olive oil (4:1 vol/vol) to shaved abdomen (50 μl) and to each paw (5 μl) (Lange-Asschenfeldt B. et al., Blood 99:538-545, 2002). Five days after sensitization, right ears were challenged by topical application of 10 μl of a 1% oxazolone solution, whereas left ears were treated with vehicle alone. Compounds were administered 1 hr prior to challenge. The extent of inflammation was measured 24 hours after challenge, using the mouse ear-swelling test. The unpaired Student t test was used for statistical analyses.

inhibition at 50 µM (L-Selectin): 62%
level of inhibition of L-selectin binding to heparin, pre-incubation versus co-incubation [1]: same level of inhibition
SMILES: CCCCN(CC)S(=O)(=O)c1ccc(C(=O)Nc2sc3c(c2-c2nc4ccccc4s2)CCN(CC)C3)cc1 [Compound 5, 2-[[4-[(ethylbutylamino)sulfonyl]benzoyl]amino]-3-(benzothiazol-2-yl)-6-ethyl-4,5,6,7-tetrahydrothieno[2,3-c]pyridine]
reduction of leukocyte infiltration (BALB/c mice [2]; 2 mg/kg intraperitoneal): 25%
reduction of leukocyte infiltration (BALB/c mice [2]; 10 mg/kg intraperitoneal): 50%
reduction of leukocyte infiltration (BALB/c mice [2]; 50 mg/kg intraperitoneal): 75%
neutrophil infiltration in mouse peritonitis (in words) (BALB/c mice [2]; FIG. 4, 2, 10, 50 mg/kg): dose-dependent inhibition
leukocyte migration into the peritoneal cavity (in words) (BALB/c mice [2]; intraperitoneal, 1 hour before thioglycollate, 3 hours): inhibited efficiently
carrageenan induced paw edema (in words) (BALB/c mice [3]): anti-inflammatory properties
DTH, % of control value (Mice): 56 % of control value
